The values that follow come from patent US12336991B2, “Factor XIIA inhibitors” (UNIVERSITY OF LEEDS, priority 2018, dated 2025).

What all share (assay type): biochemical
The target in test [1] is T1, thrombin (Homo sapiens, UniProt P00734).
T1 construct: FXa (5 nM) and thrombin (5 nM)
As to the kind of experiment: Determination of selectivity: thrombin inhibition, chromogenic substrate GPR assay. To be noted: fold selectivity for FXIIa over thrombin. The method in brief: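 Thrombin (5 nM) preincubated with compound 10 min at 37 °C in 50 mM Tris, 137 mM NaCl, pH 7.4, 5% DMSO, then GPR substrate ([…]) added. Absorbance at 405 nm read kinetically for 3 h; IC50 from initial rates, converted to Ki via Ki=IC50/(1+[S]/Km).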

For test [2], the target named is FXa (Homo sapiens, UniProt P00742). As to the kind of experiment: Determination of selectivity: FXa inhibition, chromogenic substrate S2765 assay. As to conditions: fold selectivity for FXIIa over FXa. The method in brief: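 Human FXa (5 nM) preincubated with compound (top 500 μM, 5% DMSO) 10 min at 37 °C in 50 mM Tris, 137 mM NaCl pH 7.4, then S2765 ([…]) added; A405 kinetics over 3 h at 37 °C. IC50 from initial rates, converted to Ki via Cheng-Prusoff.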
Sequence of FXa (P00742 235-488 limits assumed): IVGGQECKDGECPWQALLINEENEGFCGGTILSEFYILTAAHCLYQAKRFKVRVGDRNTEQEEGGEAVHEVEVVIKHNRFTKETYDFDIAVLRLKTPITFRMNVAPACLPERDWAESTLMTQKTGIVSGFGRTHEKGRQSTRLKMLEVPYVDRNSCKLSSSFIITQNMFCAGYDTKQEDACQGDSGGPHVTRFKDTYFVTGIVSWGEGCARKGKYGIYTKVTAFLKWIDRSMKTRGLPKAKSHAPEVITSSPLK
Sequence of FXa (P00742 41-179 partner limits assumed): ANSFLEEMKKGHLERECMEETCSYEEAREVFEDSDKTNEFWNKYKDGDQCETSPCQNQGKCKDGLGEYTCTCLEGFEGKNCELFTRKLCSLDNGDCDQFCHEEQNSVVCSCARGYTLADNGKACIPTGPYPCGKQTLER

Test [3] deals with T2, FXIIa (Homo sapiens, UniProt P00748).
T2 sequence (P00748 373-615 limits assumed): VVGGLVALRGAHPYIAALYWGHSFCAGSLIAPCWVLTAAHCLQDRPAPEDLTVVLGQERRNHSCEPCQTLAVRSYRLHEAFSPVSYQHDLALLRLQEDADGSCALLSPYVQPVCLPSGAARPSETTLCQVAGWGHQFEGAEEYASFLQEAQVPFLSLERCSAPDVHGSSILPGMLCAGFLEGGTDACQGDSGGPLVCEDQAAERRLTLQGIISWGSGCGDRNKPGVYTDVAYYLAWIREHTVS
T2 sequence (P00748 20-372 partner limits assumed): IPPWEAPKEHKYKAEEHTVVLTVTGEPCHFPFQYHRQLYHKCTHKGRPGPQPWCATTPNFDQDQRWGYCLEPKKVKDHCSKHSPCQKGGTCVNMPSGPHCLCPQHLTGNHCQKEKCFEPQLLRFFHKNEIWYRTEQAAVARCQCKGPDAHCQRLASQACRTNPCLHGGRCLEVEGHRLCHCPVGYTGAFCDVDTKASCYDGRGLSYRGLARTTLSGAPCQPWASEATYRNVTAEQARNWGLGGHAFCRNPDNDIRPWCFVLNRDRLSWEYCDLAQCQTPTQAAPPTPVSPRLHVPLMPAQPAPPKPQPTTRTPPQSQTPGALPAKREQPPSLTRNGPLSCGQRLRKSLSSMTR
In words: Determination of Factor XIIa inhibition, chromogenic substrate S-2302 assay. To be noted: human FXIIa alpha. The method, boiled down:
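FXIIa (10 nM) preincubated with compound 10 min at 37° C. in 50 mM Tris, 137 mM NaCl pH 7.4, 5% DMSO, top concentration 500 μM, then S-2302 added ([…]). Absorbance at 405 nm read kinetically for 3 h; IC50 from initial rates, converted to Ki by Cheng-Prusoff.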

On to `COc1ccc(C[C@@H]2C[C@@H](C(=O)NCc3ccc4c(c3)nnn4C)N(C(=O)[C@H]3C[C@@H](c4cnn(C)c4)CN3C)C2)cc1` [Example M05474, (2S,4R)-4-(4-Methoxy-benzyl)-1-[(2R,4S)-1-methyl-4-(1-methyl-1H-pyrazol-4-yl)-pyrrolidine-2-carbonyl]-pyrrolidine-2-carboxylic acid (1-methyl-1H-benzotriazol-5-ylmethyl)-amide], for which the “Thrombin (human)/FXIIa alpha (human)” value in test [1] was “+++ (fold selectivity values greater than 100)”. In addition, the “FXa (human)/FXIIa alpha (human)” value in test [2] was “∘∘∘”. This molecule also came in with a Ki in test [3] of 200 to 2000 nM.
In the same order, the values of `Cn1nnc2cc(CNC(=O)[C@@H]3C[C@@H](Cc4ccc5c(c4)OCO5)CN3C(=O)[C@H]3C[C@@H](c4ccccc4)CN3)ccc21` [Example M05390] are “++ (fold selectivity value of 10 to 100)”, “∘∘∘” and 200 to 2000 nM.
For `Cn1nnc2cc(CNC(=O)[C@@H]3C[C@@H](Cc4ccncc4)CN3C(=O)[C@@H](CCC(=O)N3CCCC3)NS(C)(=O)=O)ccc21` [Example M05268] the same measures were “+++ (fold selectivity values greater than 100)”, “∘∘∘” and more than 2000 nM.
For `COc1ccc(C[C@@H]2C[C@@H](C(=O)NCc3ccc4c(c3)nnn4C)N(C(=O)[C@H](N)CCC(=O)N3[C@H]4CC[C@@H]3CC4)C2)cc1` [Example M05394] the same measures were “+++ (fold selectivity values greater than 100)”, “∘∘∘” and 200 to 2000 nM.
Consider `Cc1ccc(CC[C@@H](N)C(=O)N2CCC[C@H]2C(=O)NCc2ccc(CN)cc2)cc1` [Example M00787], for which the “Thrombin (human)/FXIIa alpha (human)” value in test [1] is “+ (fold selectivity values less than 10)”. Moreover, the “FXa (human)/FXIIa alpha (human)” value in test [2] is listed as “∘∘”. In test [3], this molecule showed an inhibition constant (Ki) of more than 2000 nM.
For `NCc1ccc(CNC(=O)[C@@H]2C[C@@H](Cc3ccc(Cl)cc3)CN2C(=O)[C@H](N)CCc2ccccc2)cc1` [Example M05117] the same measures were “++ (fold selectivity value of 10 to 100)”, “∘∘∘” and 200 to 2000 nM.
As for `COc1ccc(C[C@@H]2C[C@@H](C(=O)NCc3cc4cnccc4[nH]3)N(C(=O)C3NCCc4cc(Cl)ccc43)C2)cc1` (stereo partly drawn) [Example M00965], in test [1], the “Thrombin (human)/FXIIa alpha (human)” value was “+++ (fold selectivity values greater than 100)”. The “FXa (human)/FXIIa alpha (human)” value in test [2] was “∘∘∘”. The molecule further came in with an inhibition constant (Ki) in test [3] of less than 200 nM.
In the same order, the values of `NCc1ncc(CNC(=O)[C@@H]2CCCN2C(=O)[C@H](N)CCc2ccccc2)s1` [Example M05099] are “+ (fold selectivity values less than 10)”, “∘∘” and more than 2000 nM.
As for `Cn1nnc2cc(CNC(=O)[C@@H]3C[C@@H](Cc4cccnc4)CN3C(=O)[C@H]3C[C@@H](c4ccccc4)CN3)ccc21` [Example M05338], the “Thrombin (human)/FXIIa alpha (human)” value in test [1] is “++ (fold selectivity value of 10 to 100)”. The “FXa (human)/FXIIa alpha (human)” value in test [2] is on record as “∘∘”. Besides, the Ki in test [3] was more than 2000 nM.
In the same order, the values of `COc1ccc(C[C@@H]2C[C@@H](C(=O)NCc3ccc4c(c3)nnn4C)N(C(=O)[C@H]3C[C@@H](c4ccccc4)CCN3)C2)cc1` [Example M05374] are “++ (fold selectivity value of 10 to 100)”, “∘∘” and more than 2000 nM.
For `COc1ccc(C[C@@H]2C[C@@H](C(=O)NCc3ccc4c(c3)nnn4C)N(C(=O)[C@H](N)CCC(=O)N3CCCNCC3)C2)cc1` [Example M05461] the same measures were “+++ (fold selectivity values greater than 100)”, “∘∘∘” and less than 200 nM.
In the same order, the values of `Cn1nnc2cc(CNC(=O)[C@@H]3C[C@H](NC(=O)Cc4ccccc4)CN3C(=O)[C@H](N)CCc3ccccc3)ccc21` [Example M05216] are “++ (fold selectivity value of 10 to 100)”, “∘∘” and more than 2000 nM.
`COc1ccc(C[C@@H]2C[C@@H](C(=O)NCc3ccc4c(c3)nnn4C)N(C(=O)[C@H]3CC(c4ccccc4OC)CN3)C2)cc1` (stereo partly drawn) [Example M05378]: the “Thrombin (human)/FXIIa alpha (human)” value in test [1] is “++ (fold selectivity value of 10 to 100)”. Besides, the “FXa (human)/FXIIa alpha (human)” value in test [2] was “∘∘∘”. In test [3], this molecule registered an inhibition constant Ki of 200 to 2000 nM.
For `Cn1nnc2cc(CNC(=O)[C@]3(C)CCCN3C(=O)[C@H](N)CCC(=O)N3CCCC3)ccc21` [Example M05318] the same measures were “+ (fold selectivity values less than 10)”, “∘∘” and more than 2000 nM.
For `COc1ccc(C[C@@H]2C[C@@H](C(=O)NCc3ccc4c(c3)nnn4C)N(C(=O)[C@H]3CC(c4cncn4C)CN3)C2)cc1` (stereo partly drawn) [Example M05446] the same measures were “++ (fold selectivity value of 10 to 100)”, “∘∘” and more than 2000 nM.
In the same order, the values of `COc1ccc(CC2C[C@@H](C(=O)NCc3ccc4c(c3)nnn4C)N(C(=O)[C@H](N)CCC(=O)N3CCCC3)C2)cc1Cl` (stereo partly drawn) [Example M05298] are “+++ (fold selectivity values greater than 100)”, “∘∘∘” and less than 200 nM.
Take `Cn1nnc2cc(CNC(=O)[C@@H]3CC(Cc4ccc(C(F)(F)F)cc4)CN3C(=O)[C@H](N)CCC(=O)N3CCCC3)ccc21` (stereo partly drawn) [Example M05309]: the “Thrombin (human)/FXIIa alpha (human)” value in test [1] was “+++ (fold selectivity values greater than 100)”. The “FXa (human)/FXIIa alpha (human)” value in test [2] is “∘∘∘”. Further, the Ki in test [3] fell in the range of 200 to 2000 nM.
Take `COc1ccc(C[C@@H]2C[C@@H](C(=O)NCc3ccc4c(c3)nnn4C)N(C(=O)[C@H]3C[C@@H](n4ccccc4=O)CN3)C2)cc1` [Example M00958]: the “Thrombin (human)/FXIIa alpha (human)” value in test [1] is on record as “+++ (fold selectivity values greater than 100)”. Further, the “FXa (human)/FXIIa alpha (human)” value in test [2] is given as “∘∘∘”. In test [3], this molecule returned a Ki of 200 to 2000 nM.
With `COc1ccc(C[C@@H]2C[C@@H](C(=O)NCc3cc4ccncc4o3)N(C(=O)[C@H](N)CCC(=O)N3CCCC3)C2)cc1` [Example M05465], the “Thrombin (human)/FXIIa alpha (human)” value in test [1] was “+++ (fold selectivity values greater than 100)”. Also, the “FXa (human)/FXIIa alpha (human)” value in test [2] is “∘∘∘”. The Ki in test [3] is 200 to 2000 nM.
In the same order, the values of `COc1ccc(C[C@@H]2C[C@@H](C(=O)NCc3ccc4c(c3)nnn4C)N(C(=O)[C@H]3C[C@@H](c4ccncc4)CN3)C2)cc1` [Example M05353] are “++ (fold selectivity value of 10 to 100)”, “∘∘” and more than 2000 nM.
In the same order, the values of `Cn1nnc2cc(CNC(=O)[C@@H]3C[C@@H](Cc4ccncc4)CN3C(=O)[C@H]3C[C@@H](c4ccccc4)CN3)ccc21` [Example M05288] are “++ (fold selectivity value of 10 to 100)”, “∘∘∘” and more than 2000 nM.
In the same order, the values of `COc1ccc2c(c1)CCNC2C(=O)N1C[C@H](Cc2ccncc2)C[C@H]1C(=O)NCc1ccc2c(c1)nnn2C` (stereo partly drawn) [Example M05462] are “+++ (fold selectivity values greater than 100)”, “∘∘∘” and 200 to 2000 nM.

Usually Ki stands for the equilibrium dissociation constant of an inhibitor or competing ligand from its target.
